Reference: PMC10147923, “Pain-causing stinging nettle toxins target TMEM233 to modulate NaV1.7 function” (Nature Communications, 2023)
“And” between values parts separate entries of the source, which are not always exact repeats. Equal entries are not always repeated. Where two headings read alike, the source gives them in different places. Positions of bridges follow the written chain, without caps; N, C: chain ends. Residues, ends and D or L forms follow the SMILES beside them. *: point of attachment. Biotin = O=C1N[C@H]2[C@H](CS[C@H]2CCCCC(=O)*)N1; PEG4 = NCCOCCOCCOCCOCCC(=O)O

Experiments:
NaV1.7 [1] = biological target: T1, NaV1.7 (Homo sapiens, UniProt Q15858); test: Recovery from fast inactivation, HEK293-NaV1.7 with peptide in intracellular solution; type: cell-based
T1 sequence (Q15858 whole entry): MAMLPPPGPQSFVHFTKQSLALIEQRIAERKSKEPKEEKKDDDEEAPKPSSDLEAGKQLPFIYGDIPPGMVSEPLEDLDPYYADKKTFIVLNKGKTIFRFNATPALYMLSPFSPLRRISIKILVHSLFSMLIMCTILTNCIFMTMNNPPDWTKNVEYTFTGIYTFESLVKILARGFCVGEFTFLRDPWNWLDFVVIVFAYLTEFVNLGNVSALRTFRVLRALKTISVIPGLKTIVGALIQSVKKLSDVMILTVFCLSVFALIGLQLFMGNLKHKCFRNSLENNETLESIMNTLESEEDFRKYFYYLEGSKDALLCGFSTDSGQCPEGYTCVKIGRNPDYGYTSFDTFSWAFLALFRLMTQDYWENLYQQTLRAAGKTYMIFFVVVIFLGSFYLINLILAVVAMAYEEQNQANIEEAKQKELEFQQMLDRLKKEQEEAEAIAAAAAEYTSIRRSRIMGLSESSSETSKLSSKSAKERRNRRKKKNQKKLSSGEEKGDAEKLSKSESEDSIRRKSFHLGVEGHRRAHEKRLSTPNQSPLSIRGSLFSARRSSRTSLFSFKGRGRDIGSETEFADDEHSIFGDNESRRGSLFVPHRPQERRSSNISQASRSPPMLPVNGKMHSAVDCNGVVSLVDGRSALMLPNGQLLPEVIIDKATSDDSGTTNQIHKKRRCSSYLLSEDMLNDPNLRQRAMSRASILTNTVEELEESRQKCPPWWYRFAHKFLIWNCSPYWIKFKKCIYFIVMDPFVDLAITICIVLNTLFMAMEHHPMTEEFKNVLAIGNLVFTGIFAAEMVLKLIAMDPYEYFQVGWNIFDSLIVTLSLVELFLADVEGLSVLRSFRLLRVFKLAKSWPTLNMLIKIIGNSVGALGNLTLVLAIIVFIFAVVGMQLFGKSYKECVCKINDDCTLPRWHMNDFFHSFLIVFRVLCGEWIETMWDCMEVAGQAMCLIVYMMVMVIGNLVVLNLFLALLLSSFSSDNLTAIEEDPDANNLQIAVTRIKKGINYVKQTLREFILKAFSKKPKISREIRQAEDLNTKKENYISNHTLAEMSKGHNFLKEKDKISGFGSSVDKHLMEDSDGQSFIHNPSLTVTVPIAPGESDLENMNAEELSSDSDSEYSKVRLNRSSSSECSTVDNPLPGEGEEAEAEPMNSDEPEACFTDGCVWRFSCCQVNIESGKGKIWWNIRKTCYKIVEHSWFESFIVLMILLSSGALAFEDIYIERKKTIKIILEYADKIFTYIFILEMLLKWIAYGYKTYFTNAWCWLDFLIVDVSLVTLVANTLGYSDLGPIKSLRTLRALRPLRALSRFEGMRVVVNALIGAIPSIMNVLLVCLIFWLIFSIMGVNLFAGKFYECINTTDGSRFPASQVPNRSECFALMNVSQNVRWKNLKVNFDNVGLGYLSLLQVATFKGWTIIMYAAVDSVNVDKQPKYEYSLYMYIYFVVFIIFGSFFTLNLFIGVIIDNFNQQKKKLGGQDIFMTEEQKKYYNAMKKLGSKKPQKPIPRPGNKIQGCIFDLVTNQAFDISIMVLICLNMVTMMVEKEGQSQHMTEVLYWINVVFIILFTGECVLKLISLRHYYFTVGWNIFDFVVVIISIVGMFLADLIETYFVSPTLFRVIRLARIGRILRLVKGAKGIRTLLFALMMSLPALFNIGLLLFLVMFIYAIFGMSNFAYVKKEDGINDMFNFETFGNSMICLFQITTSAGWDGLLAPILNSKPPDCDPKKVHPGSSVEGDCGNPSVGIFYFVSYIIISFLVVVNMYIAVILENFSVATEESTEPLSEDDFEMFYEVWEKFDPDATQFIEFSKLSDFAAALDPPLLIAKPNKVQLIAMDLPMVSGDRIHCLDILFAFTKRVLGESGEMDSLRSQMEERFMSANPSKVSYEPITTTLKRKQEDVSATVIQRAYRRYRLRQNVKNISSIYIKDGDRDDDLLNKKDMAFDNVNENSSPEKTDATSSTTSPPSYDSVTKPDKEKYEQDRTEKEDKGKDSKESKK
T1 sequence (Q07699 19-218, further chain): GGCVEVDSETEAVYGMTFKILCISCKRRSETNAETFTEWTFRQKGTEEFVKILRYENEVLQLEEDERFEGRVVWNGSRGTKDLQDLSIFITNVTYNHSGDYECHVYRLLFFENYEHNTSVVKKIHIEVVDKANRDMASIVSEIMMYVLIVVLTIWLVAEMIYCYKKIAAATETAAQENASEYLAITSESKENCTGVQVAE
Method: To determine recovery from fast inactivation, a 20 ms pulse to 0 mV from a holding potential of −90 mV was used to induce fast inactivation. A subsequent recovery period, ranging from 1 ms to 2216 ms in 50% increments at −90 mV, was followed by a last 20 ms test pulses to 0 mV to determine the time-dependence of recovery from fast inactivation. The proportion of available channels was determined by normalizing peak currents from the last to the first pulse. A two-phase exponential equation was fit to the normalized current, plotted as a function of time, to determine the time constants τ1 and τ2 of recovery from fast inactivation.

NaV1.7/TMEM233 [2] = biological target: T2, NaV1.7/TMEM233 (Homo sapiens, UniProt B4DJY2+Q15858); type: cell-based; conditions: best-fit value, log(agonist) vs. response -- variable slope (four parameters)
Method: HEK293-NaV1.7 cells were transfected with TMEM233, CRELD1, LMAN2L, MMGT1, RNF121 and STT3B and co-transfected with five plasmids coding for the Glycosylphosphatidylinositol (GPI) complex (GPAA1, PIGK, PIGS, PIGU, PIGT) using Lipofectamine 2000. After 24 h, transfected cells were harvested and plated at a density of 10,000–15,000 cells per well on black-walled 384-well imaging plates. Plated cells were cultured for a further 24 h at 37 °C and 5% CO2. FLIPR (Fluorescent Imaging Plate Reader) Red membrane potential assay dye (Molecular Devices, California, USA) was diluted in physiological salt solution according to the manufacturer’s instructions (PSS, in mM: NaCl 140, glucose 11.5, HEPES 10, KCl 5.9, MgCl2 1.4, NaH2PO4 1.2, NaHCO3 5, CaCl2 1.8, pH 7.4). Growth medium was removed from the plate and replaced with 20 µL of FLIPR Red membrane potential assay dye per well and incubated in the dark at 37 °C for 60 min. […] Fluorescence responses to ExTxA were computed as the maximum change in fluorescence over baseline (ΔF/F0) using ScreenWorks (Molecular Devices, Version 5.1.2.94).

NaV1.7/TMEM233 [3] = biological target: T2, NaV1.7/TMEM233; type: cell-based
HEK293 cells = test: ExTxA-488 binding assay, untransfected/mock HEK293; set-up: species or system human
Method: (§1) HEK293 cells (untransfected controls, or transfected with TMEM233, NaV1.7 or both TMEM233 and NaV1.7), were incubated in suspension with ExTxA conjugated to Alexa Fluor 488 (ExTxA-488) in assay buffer (250 mM NaCl, 25 mM HEPES, pH 7) for 30 min at 4 °C. Unbound ExTxA-488 was removed by washing cells three times with assay buffer. Cells were plated at a density of 100,000 cells per well in a volume of 50 µL in a 384-well OptiPlate (PerkinElmer, Massachusetts, USA). Fluorescence intensity (excitation 490 nm; emission 520 nm) was assessed using an Infinite M1000 Pro (Tecan, Männedorf, Switzerland). Concentration-response curves were fitted using the log (agonist) vs. response—variable slope (four parameters) equation and normalized to the largest fitted top from amongst the four groups as computed by GraphPad Prism Version 9.4.1.

TMEM233 = TMEM233 (Homo sapiens, UniProt B4DJY2); test: ExTxA-488 binding assay, TMEM233
TMEM233, sequence (B4DJY2 whole entry): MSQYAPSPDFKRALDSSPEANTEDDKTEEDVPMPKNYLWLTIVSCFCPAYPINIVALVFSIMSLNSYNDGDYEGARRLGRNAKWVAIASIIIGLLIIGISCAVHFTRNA
Method: as §1

NaV1.7 [4] = biological target: T1, NaV1.7; test: ExTxA-488 binding assay, NaV1.7
Method: as §1

NaV1.7/TMEM233 [5] = biological target: T2, NaV1.7/TMEM233; test: ExTxA-488 binding assay, NaV1.7/TMEM233
Method: as §1

NaV1.7 [6] = biological target: T1, NaV1.7; type: cell-based
[7] = tested on: total and TTX-s NaV current in wild-type DRG neurons; test: Persistent total NaV current, manual patch clamp, mouse DRG neurons; type: cell-based
[8] = tested on: NaV1.7 endogenously expressed in TE-671 cells; test: Persistent NaV current, TE-671 cells (automated patch clamp); type: cell-based
TE-671 cells = conditions: veratridine 5 µM, ouabain 20 nM
NaV1.7/TMEM233 [9] = biological target: T2, NaV1.7/TMEM233; test: Proximity ligation assay NaV1.7 and TMEM233; conditions: Fig 5e
Method: HEK293 cells stably expressing β1/β2 were transiently transfected in T25 flasks using Lipofectamine 2000 with plasmids encoding GFP (0.35 μg) as a transfection control, as well as N-terminal HA-tagged TMEM233 (0.35 μg) and N-terminal FLAG- tagged NaV1.7 (1.0 μg) alone or in combination. The total amount of plasmid DNA/T25 flask was kept constant at 1.7 μg flask using empty pcDNA3.1 plasmid as required. After 24 h incubation at 37 °C, cells were plated on PDL-coated glass coverslips and cultured for a further 24 h. Cells were washed once using sterile phosphate-buffered saline, fixed with 4% formaldehyde for 5 min, permeabilized with 0.1% Triton-X 100 in PSS, blocked using proximity ligation bocking buffer (Sigma DUO82007) and incubated for 1 h with anti-FLAG (1:1000; Sigma F1804) and anti-HA (1:1000; Sigma H6908) antibodies in Duolink antibody diluent. Permeabilized cells were then washed twice with wash buffer A at room temperature for 5 min. Anti-mouse PLUS (Sigma DUO92001) and anti-rabbit MINUS (Sigma DUO92005) probes were diluted 1:5 in Duolink antibody diluent and incubated with cells for 1 h at 37 °C. Cells were then washed with wash buffer A at room temperature for 5 min twice and incubated with ligase diluted 1:40 in ligation buffer. After incubation at 37 °C for 30 mins, cells were washed twice with wash buffer A. Polymerase was diluted 1:80 in amplification buffer and incubated with cells for 100 mins at 37 °C. Cells were subsequently washed with wash buffer B twice for 10 mins and mounted with Duolink In Situ mounting media with DAPI. Cells were imaged on a Zeiss AxioImage M2 with Apotome2 and Axiocam 506 camera. Proximity ligation assay signal (PLA particles) in GFP-positive cells were quantified using ImageJ in collapsed stacks from 3–6 random images obtained per coverslip (Image>Type>8-bit; Image>Adjust>Threshold; Image>Analyze>Analyze Particles). Particles size was set to 0.0003–∞ and circularity to 0.00–1.00. The average number of particles/GFP-positive cells from three independent experiments was analyzed by One-way ANOVA.

1-41 TMEM233 (MSQYAPSPDFKRALDSSPEANTEDDKTEEDVPMPKNYLWLT; UniProt B4DJY2 1-41, looked up, fragment)
Tau Fast, difference between means (1-41 TMEM233 - BSA control) ± SEM (NaV1.7 [1]): 3.270 ± 1.361
Tau Fast, individual values (NaV1.7 [1]): 5.876 and 7.835 and 7.406 and 14.82 and 9.055 and 12.01 and 6.932 and 17.51 and 10.21
Tau Fast, mean (NaV1.7 [1]): 10.18

CC[C@H](C)[C@@H]1NC(=O)[C@H](CCCNC(=N)N)NC(=O)[C@H](Cc2ccccc2)NC(=O)[C@H](CC(C)C)NC(=O)[C@H](CO)NC(=O)[C@@H]2CSSC[C@@H]3NC(=O)[C@H]([C@@H](C)O)NC(=O)[C@H](CSSC[C@H](NC(=O)[C@H](CCCNC(=N)N)NC(=O)[C@@H]4CCCN4C(=O)[C@H](CC(C)C)NC(=O)[C@@H](N)CCCCn4cc(CNC(=O)c5ccc(-c6c7ccc(=N)c(S(=O)(=O)O)c-7oc7c(S(=O)(=O)O)c(N)ccc67)c(C(=O)O)c5)nn4)C(=O)N[C@@H](CC(=O)O)C(=O)N[C@@H](CO)C(=O)N4CCC[C@H]4C(=O)N[C@@H](Cc4ccccc4)C(=O)N2)NC(=O)[C@H](CCCCN)NC(=O)[C@H](CC(=O)O)NC(=O)CNC(=O)[C@H](CSSC[C@@H](C(=O)N[C@H](C(=O)N2CCC[C@H]2C(=O)N[C@@H](CC(=O)O)C(=O)N[C@H](C(=O)O)C(C)C)C(C)C)NC(=O)[C@H](CC(C)C)NC(=O)CNC(=O)[C@H](Cc2ccccc2)NC(=O)[C@H]([C@@H](C)CC)NC(=O)[C@@H]2CCCN2C(=O)[C@H](CC(C)C)NC(=O)[C@@H]2CCCN2C(=O)[C@H](C(C)C)NC3=O)NC(=O)[C@H](CC(C)C)NC(=O)CNC1=O [Alexa488-ExTxA]
Bottom (NaV1.7/TMEM233 [2]): 2.016e-5
HillSlope (NaV1.7/TMEM233 [2]): 1.084
LogEC50 (NaV1.7/TMEM233 [2]): -7.29
Span (NaV1.7/TMEM233 [2]): 0.8012
Top (NaV1.7/TMEM233 [2]): 0.8013
Best-fit parameter Bottom (NaV1.7/TMEM233 [3]): 0.00002
Best-fit parameter Hill slope (NaV1.7/TMEM233 [3]): 1.084
Best-fit parameter Top (NaV1.7/TMEM233 [3]): 0.8013
functional activity of tagged ExTxA (NaV1.7/TMEM233 [3]): retained functional activity
Max fluorescence (HEK293 cells; Alexa488-ExTxA 1 µM, HEK293, mean ± SEM, n = 3): 15,740 ± 2133 AFU
HillSlope (HEK293 cells; Untransfected, four-parameter fit, Top = 1): 0.9756
LogEC50 (HEK293 cells; Untransfected, four-parameter fit, Top = 1, 95% CI -5.502 to -5.307): -5.409
HillSlope (TMEM233): 1.703
LogEC50 (TMEM233): -6.917
Max fluorescence (TMEM233; Alexa488-ExTxA 1 µM, TMEM233, mean ± SEM, n = 3): 38,681 ± 951.2 AFU
Max fluorescence (NaV1.7 [4]; Alexa488-ExTxA 1 µM, NaV1.7, mean ± SEM, n = 3): 20,583 ± 3970 AFU
HillSlope (NaV1.7 [4]; Nav1.7, four-parameter fit, Top = 1): 0.7934
LogEC50 (NaV1.7 [4]; Nav1.7, four-parameter fit, Top = 1, 95% CI -5.409 to -4.797): -5.142
HillSlope (NaV1.7/TMEM233 [5]): 1.366
LogEC50 (NaV1.7/TMEM233 [5]): -6.833
Max fluorescence (NaV1.7/TMEM233 [5]; Alexa488-ExTxA 1 µM, NaV1.7/TMEM233, mean ± SEM, n = 3): 38,799 ± 2471 AFU

CC[C@H](C)[C@@H]1NC(=O)[C@H](CCCNC(=N)N)NC(=O)[C@H](Cc2ccccc2)NC(=O)[C@H](CC(C)C)NC(=O)[C@H](CO)NC(=O)[C@@H]2CSSC[C@@H]3NC(=O)[C@H]([C@@H](C)O)NC(=O)[C@H](CSSC[C@H](NC(=O)[C@H](CCCNC(=N)N)NC(=O)[C@@H]4CCCN4C(=O)[C@H](CC(C)C)NC(=O)CCOCCOCCOCCOCCNC(=O)CCCC[C@@H]4SC[C@@H]5NC(=O)N[C@@H]54)C(=O)N[C@@H](CC(=O)O)C(=O)N[C@@H](CO)C(=O)N4CCC[C@H]4C(=O)N[C@@H](Cc4ccccc4)C(=O)N2)NC(=O)[C@H](CCCCN)NC(=O)[C@H](CC(=O)O)NC(=O)CNC(=O)[C@H](CSSC[C@@H](C(=O)N[C@H](C(=O)N2CCC[C@H]2C(=O)N[C@@H](CC(=O)O)C(=O)N[C@H](C(=O)O)C(C)C)C(C)C)NC(=O)[C@H](CC(C)C)NC(=O)CNC(=O)[C@H](Cc2ccccc2)NC(=O)[C@H]([C@@H](C)CC)NC(=O)[C@@H]2CCCN2C(=O)[C@H](CC(C)C)NC(=O)[C@@H]2CCCN2C(=O)[C@H](C(C)C)NC3=O)NC(=O)[C@H](CC(C)C)NC(=O)CNC1=O [ExTxA-Biotin] ({Biotin-PEG4}-LPRCDSPFCSLFRIGLCGDKCTCVPLPIFGLCVPDV-OH; disulfide 4-21, 9-23, 17-32)
Bottom (NaV1.7/TMEM233 [2]): -0.001461
HillSlope (NaV1.7/TMEM233 [2]): 0.9303
LogEC50 (NaV1.7/TMEM233 [2]): -6.256
Span (NaV1.7/TMEM233 [2]): 0.7803
Top (NaV1.7/TMEM233 [2]): 0.7788

NC1=N[C@H](O)[C@H]2[C@H]3O[C@]4(O)O[C@@H]([C@@H](O)[C@@]2(N1)[C@@H]4O)[C@]3(O)CO [TTX, tetrodotoxin, reference compound]
Mean Diff. of persistent current, ExTxA vs. TTX (NaV1.7 [6]): 0.1483
Mean Diff. of persistent current, ExTxA vs. ExTxA + TTX [7]: 0.5123
Mean Diff. of persistent current, ExTxA vs. ExTxA + TTX [8]: 0.2464

C[C@@H]1O[C@@H](O[C@H]2C[C@@H](O)[C@]3(CO)[C@H]4[C@H](O)C[C@]5(C)[C@@H](C6=CC(=O)OC6)CC[C@]5(O)[C@@H]4CC[C@]3(O)C2)[C@H](O)[C@H](O)[C@H]1O [ouabain, reference compound]
cytotoxicity of the concentration used (TE-671 cells): non-cytotoxic

COc1ccc(C(=O)O[C@H]2CC[C@@]3(C)[C@@H]4CC[C@H]5[C@]6(O)C[C@H](O)[C@@]7(O)[C@@H](CN8C[C@@H](C)CC[C@H]8[C@@]7(C)O)[C@]6(O)C[C@@]53O[C@]24O)cc1OC [veratridine, reference compound]
cytotoxicity of the concentration used (TE-671 cells): non-cytotoxic

BSA control
Tau Fast, individual values (NaV1.7 [1]): 7.097 and 5.916 and 7.352 and 7.278 and 4.563 and 7.588 and 6.382 and 7.242 and 8.803
Tau Fast, mean (NaV1.7 [1]): 6.913

FLAG-NaV1.7
particles/cell, mean (NaV1.7/TMEM233 [9]; mean of n = 3): 5.245 particles/cell
particles/cell (NaV1.7/TMEM233 [9]; replicate 1): 1.95 particles/cell
particles/cell (NaV1.7/TMEM233 [9]; replicate 2): 7.467 particles/cell
particles/cell (NaV1.7/TMEM233 [9]; replicate 3): 6.319 particles/cell
